Data taken from patent publication US5185320A, “O^56 -alkyl derivatives of aglycone and pseudo aglycones of teicoplanin” (Gruppo Lepetit S.p.A., priority 1989, dated 1993).

Columns and labels:
Type in all cases: cell-based
Settings in all cases: inoculum about 10^4 CFU/ml, 18-24 h at 37° C.
[1] = test system: Staph. epidermidis ATCC 12228; assay: MIC, standard dilution test, Staph. epidermidis ATCC 12228
Experimental: (§1) ISOSENSITEST broth (Oxoid) and TOLLD-HEWITT broth (Difco) are used for growing staphylococci and streptococci, respectively. Broth cultures are diluted so that the final inoculum is about 10^4 colony forming units/ml (CFU/ml).

[2] = test system: Staph. haemolyticus L 602; assay: MIC, standard dilution test, Staph. haemolyticus L 602
Experimental: as §1

[3] = test system: Neisseria gonorrhoeae ISM68/126; assay: MIC, standard dilution test, Neisseria gonorrhoeae ISM68/126
Experimental: as §1

[4] = test system: Strep. faecalis ATCC 7080; assay: MIC, standard dilution test, Strep. faecalis ATCC 7080
Experimental: as §1

Strep. mitis L 796 = assay: MIC, standard dilution test, Strep. mitis L 796
Experimental: as §1

[5] = test system: Haemophilus influenzae ATCC 19418; assay: MIC, standard dilution test, Haemophilus influenzae ATCC 19418
Experimental: as §1

Staph. aureus Tour L 165 = assay: MIC, standard dilution test, Staph. aureus Tour L 165
Experimental: as §1

Strep. pyogenes C 203 = assay: MIC, standard dilution test, Strep. pyogenes C 203
Experimental: as §1

Strep. pneumoniae UC41 = assay: MIC, standard dilution test, Strep. pneumoniae UC41
Experimental: as §1

[6] = test system: Proteus vulgaris ATCC 881; assay: MIC, standard dilution test, Proteus vulgaris ATCC 881
Experimental: as §1

[7] = test system: Pseudomonas aeruginosa ATCC 10145; assay: MIC, standard dilution test, Pseudomonas aeruginosa ATCC 10145
Experimental: as §1

[8] = test system: Escherichia coli SKF 12140; assay: MIC, standard dilution test, Escherichia coli SKF 12140
Experimental: as §1

Row | Compound | Minimal inhibitory concentration (MIC) [1] | Minimal inhibitory concentration (MIC) [2] | Minimal inhibitory concentration (MIC) [3] | Minimal inhibitory concentration (MIC) [4] | Minimal inhibitory concentration (MIC) (Strep. mitis L 796) | Minimal inhibitory concentration (MIC) [5] | Minimal inhibitory concentration (MIC) (Staph. aureus Tour L 165) | Minimal inhibitory concentration (MIC) (Strep. pyogenes C 203) | Minimal inhibitory concentration (MIC) (Strep. pneumoniae UC41) | Minimal inhibitory concentration (MIC) [6] | Minimal inhibitory concentration (MIC) [7] | Minimal inhibitory concentration (MIC) [8]
1 | NC1C(=O)NC2Cc3ccc(c(Cl)c3)Oc3cc4cc(c3OCc3ccccc3)Oc3ccc(cc3Cl)C(O)C3NC(=O)C(NC(=O)C4NC(=O)C(NC2=O)c2cc(O)cc(c2)Oc2cc1ccc2O)c1ccc(O)c(c1)-c1c(O)cc(O)cc1C(C(=O)OCc1ccccc1)NC3=O (stereo not drawn) [Compound 20, O^56 -phenylmethyldeglucoteicoplanin phenylmethyl ester] | 0.25 | 4 | > 128 | 0.5 | 0.125 | > 128 | 0.5 | 0.125 | 0.25 | > 128 | > 128 | > 128
2 | NC1C(=O)NC2Cc3ccc(c(Cl)c3)Oc3cc4cc(c3OC3CCOC3=O)Oc3ccc(cc3Cl)C(O)C3NC(=O)C(NC(=O)C4NC(=O)C(NC2=O)c2cc(O)cc(c2)Oc2cc1ccc2O)c1ccc(O)c(c1)-c1c(O)cc(O)cc1C(C(=O)OCc1ccccc1)NC3=O (stereo not drawn) [Compound 21, O^56-(tetrahydro-2-oxo-3-furanyl)deglucoteicoplanin phenylmethyl ester] | 1 | 4 | > 128 | 2 | 0.25 | > 128 | 2 | 0.125 | 0.25 | > 128 | > 128 | > 128
3 | NC1C(=O)NC2Cc3ccc(c(Cl)c3)Oc3cc4cc(c3OC3CCOC3=O)Oc3ccc(cc3Cl)C(O)C3NC(=O)C(NC(=O)C4NC(=O)C(NC2=O)c2cc(O)cc(c2)Oc2cc1ccc2O)c1ccc(O)c(c1)-c1c(O)cc(O)cc1C(C(=O)OC1CCOC1=O)NC3=O (stereo not drawn) [Compound 23, O^56-(tetrahydro-2-oxo-3-furanyl)deglucoteicoplanin (tetrahydro-2-oxo-3-furanyl) ester] | 0.25 | 8 | > 128 | 1 | 2 | > 128 | 0.5 | 2 | 0.5 | > 128 | > 128 | > 128
4 | NCCNC(=O)C(CCO)OC(=O)C1NC(=O)C2NC(=O)C(NC(=O)C3NC(=O)C4NC(=O)C(Cc5ccc(c(Cl)c5)Oc5cc3cc(c5OC(CCO)C(=O)NCCN)Oc3ccc(cc3Cl)C2O)NC(=O)C(N)c2ccc(O)c(c2)Oc2cc(O)cc4c2)c2ccc(O)c(c2)-c2c(O)cc(O)cc21 (stereo not drawn) [Compound 24] | 0.125 | 0.25 | 128 | 0.5 | 0.125 | > 128 | 0.25 | 0.125 | 0.25 | 128 | > 128 | 32
5 | O-(2-(3-(4-(3-amino-propyl)amino)butyl)amino)propyl)amino)-1-hydroxy-2-oxoethyl)teicoplanin aglycone 1-(3-(4-(3-aminopropyl) amino)butyl)amino)propyl)amino)carbonyl)-3-hydroxy-propyl ester [Compound 25] | 0.125 | 0.25 | > 128 | 1 | 0.125 | > 128 | 0.25 | 0.125 | 0.125 | 64 | > 128 | 32
6 | O^56 -(2-bromoethyl)deglucoteicoplanin phenylmethyl ester [Compound 19] | 0.5 | 4 | > 128 | 4 | 0.25 | > 128 | 1 | 0.25 | 0.5 | > 128 | > 128 | > 128
